Test results: patent US7504393B2, “Benzylamine analogues” (priority 2001, dated 2009)
Where a name gives a salt, the structure may show the parent alone. Read-outs that look alike come from different tables or passages of the source.

Tests used:
serotonin re-uptake = target: T1, serotonin re-uptake (Rattus norvegicus, UniProt P31652); test: Serotonin re-uptake inhibitory activity (synaptosome, [3H]5-HT); type: biochemical; settings: synaptosome from rat whole brain except cerebellum; [3H]5-HT, 37° C.; read-out: IC50 (nM) Serotonin re-uptake inhibitory activity
T1 construct: synaptosome prepared from rat whole brains except the cerebellums; from tissue; host or cells: synaptosomes from rat whole brain except the cerebellum
Description: Serotonin re-uptake inhibitory activity was determined using synaptosome prepared from rat whole brains except the cerebellums. Briefly, 10 μl of DMSO solution-dissolved test substance (control group; DMSO solution alone) was added to 1 ml of synaptosome and incubated for 5 min at 37° C. (in the control, DMSO alone was added to the synaptosome and incubated at 4° C.). Furthermore, 10 μl of [^3H]5-HT solution (final concentration: 10 μM as a total concentration of 5-HT, 100 nM as [^3H]5-HT) was added and incubated for 5 min at 37° C. Then 4 ml of ice-cold saline was added to stop the response. The response solution was filtered, 4 ml of saline was added, and the solution was once again filtered. Furthermore, 5 ml of Pico-Fluor was added, then ^3H levels on filter papers were counted by a liquid scintillation counter. Concentrations of test compounds to inhibit serotonin re-uptake by 50% (IC50) were calculated.

acetylcholinesterase = target: T2, acetylcholinesterase (Mus musculus, UniProt P21836); test: biochemical
T2 construct: phosphate buffer solution containing the brain homogenate; from tissue; host or cells: mouse whole brain homogenate
T2 sequence (P21836 32-614): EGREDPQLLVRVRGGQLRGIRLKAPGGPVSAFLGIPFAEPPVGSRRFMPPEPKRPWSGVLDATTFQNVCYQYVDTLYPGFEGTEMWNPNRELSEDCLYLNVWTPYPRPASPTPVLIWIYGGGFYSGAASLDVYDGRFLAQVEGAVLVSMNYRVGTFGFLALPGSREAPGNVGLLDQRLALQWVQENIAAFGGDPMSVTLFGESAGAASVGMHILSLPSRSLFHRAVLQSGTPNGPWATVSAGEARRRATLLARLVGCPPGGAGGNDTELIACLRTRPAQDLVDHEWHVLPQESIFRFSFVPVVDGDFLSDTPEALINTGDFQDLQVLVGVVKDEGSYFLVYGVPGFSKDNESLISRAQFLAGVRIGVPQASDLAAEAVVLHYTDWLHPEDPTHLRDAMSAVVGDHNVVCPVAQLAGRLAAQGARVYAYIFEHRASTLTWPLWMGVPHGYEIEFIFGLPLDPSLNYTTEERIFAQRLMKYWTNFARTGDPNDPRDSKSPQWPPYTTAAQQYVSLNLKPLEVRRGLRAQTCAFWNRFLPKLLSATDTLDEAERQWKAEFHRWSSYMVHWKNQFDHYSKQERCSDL

[1] = mouse whole brain homogenate, acetylthiocholine/DTNB, absorbance 412 nm, read-out: IC50 (nM) Acetylcholinesterase inhibitory activity

T1 sequence (P31652 whole entry): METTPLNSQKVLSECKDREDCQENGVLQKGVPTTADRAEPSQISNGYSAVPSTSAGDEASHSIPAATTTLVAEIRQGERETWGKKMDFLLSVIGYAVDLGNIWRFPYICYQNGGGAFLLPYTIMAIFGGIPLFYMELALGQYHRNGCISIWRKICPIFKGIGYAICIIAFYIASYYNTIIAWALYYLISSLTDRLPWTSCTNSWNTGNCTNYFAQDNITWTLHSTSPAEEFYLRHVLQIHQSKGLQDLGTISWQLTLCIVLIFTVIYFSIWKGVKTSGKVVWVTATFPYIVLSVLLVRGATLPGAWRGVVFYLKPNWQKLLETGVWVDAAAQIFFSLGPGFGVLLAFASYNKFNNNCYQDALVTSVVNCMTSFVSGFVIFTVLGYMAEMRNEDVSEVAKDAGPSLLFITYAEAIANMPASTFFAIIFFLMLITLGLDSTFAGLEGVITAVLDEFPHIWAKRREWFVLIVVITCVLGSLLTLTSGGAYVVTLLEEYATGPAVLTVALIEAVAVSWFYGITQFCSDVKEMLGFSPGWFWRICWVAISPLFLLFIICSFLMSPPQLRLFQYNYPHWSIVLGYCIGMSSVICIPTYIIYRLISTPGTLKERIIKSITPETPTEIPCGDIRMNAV

Structure (SMILES)	IC50 (serotonin re-uptake)	IC50 (acetylcholinesterase)	IC50 (acetylcholinesterase; [1])
CN(C)C(=O)Oc1ccc([C@@H](CCOc2ccc([N+](=O)[O-])cc2)N(C)C)cc1 [Test Compound 102, (R)-4-[1-Dimethylamino-3-(4-nitrophenoxy)propyl]phenyl dimethylcarbamate hydrochloride]	167 nM	170 nM	
CN(C)C(=O)Oc1cccc(C(CCOc2ccc([N+](=O)[O-])cc2)N(C)C)c1 (stereo not shown) [Test Compound 104, 3-[1-Dimethylamino-3-(4-nitrophenoxy)propyl]phenyl dimethylcarbamate hydrochloride]	176 nM	53 nM	
CNC(CCOc1ccc([N+](=O)[O-])cc1Cl)c1ccc(OC(=O)N(C)C)cc1 (stereo not shown) [Test Compound 124, 4-[3-(2-Chloro-4-nitrophenoxy)-1-methylaminopropyl]phenyl dimethylcarbamate hydrochloride]	110 nM	64 nM	
CN[C@@H](CCOc1ccc([N+](=O)[O-])cc1)c1cccc(OC(=O)N(C)C)c1 [Test Compound 125, (S) -3-[3-(4-Nitrophenoxy)-1-methylaminopropyl]phenyl dimathylcarbamate hydrochloride]	841 nM		19 nM
CN[C@@H](CCOc1ccc([N+](=O)[O-])cc1Cl)c1ccc(OC(=O)N(C)C)cc1 [Test Compound 127, (S)-4-[3-(2-Chloro-4-nitrophenoxy)-1-methylaminopropyl]phenyl dimethylcarbamate hydrochloride]	856 nM	40 nM	
CN[C@H](CCOc1ccc([N+](=O)[O-])cc1Cl)c1ccc(OC(=O)N(C)C)cc1 [Test Compound 128, (R)-4-[3-(2-Chloro-4-nitrophenoxy)-1-methylaminopropyl]phenyl dimethylcarbamate hydrochloride]	70 nM	15 nM	
CN(C)C(=O)Oc1ccc([C@H](CCOc2ccc([N+](=O)[O-])cc2Cl)N(C)C)cc1 [Test Compound 129, (S)-4-[3-(2-Chloro-4-nitrophenoxy)-1-dimethylaminopropyl]phenyl dimethylcarbamate hydrochloride]	650 nM	64 nM	
CN(C)C(=O)Oc1ccc([C@@H](CCOc2ccc([N+](=O)[O-])cc2Cl)N(C)C)cc1 [Test Compound 130, (R)-4-[3-(2-Chloro-4-nitrophenoxy)-1-dimethylaminopropyl]phenyl dimethylcarbamate hydrochloride]	88 nM	42 nM	
CN(C)C(=O)Oc1ccc(C(CCOc2ccc([N+](=O)[O-])cc2Cl)N(C)C)cc1 (stereo not shown) [Test Compound 131, 4-[3-(2-Chloro-4-nitrophenoxy)-1-dimethylaminopropyl]phenyl dimethylcarbamate hydrochloride]	129 nM	57 nM	
CN(C)C(=O)Oc1cccc([C@@H](CCOc2ccc([N+](=O)[O-])cc2)N(C)C)c1 [Test Compound 136, (R)-3-[3-(4-Nitrophenoxy)-1-dimethylaminopropyl]phenyl dimethylcarbamate hydrochloride]	236 nM	980 nM	
CN(C)C(=O)Oc1ccc([C@@H](CCOc2ccc(F)c(F)c2)N(C)C)cc1 [Test Compound 152, (R)-4-[3-(3,4-Difluorophenoxy)-1-dimethylaminopropyl]phenyl dimethylcarbamate hydrochloride]	67 nM	310 nM	
CN[C@@H](CCOc1ccc(F)c(F)c1)c1ccc(OC(=O)N(C)C)cc1 [Test Compound 162, (S)-4-[3-(3,4-Difluorophenoxy)-1-methylaminopropyl]phenyl dimethylcarbamate hydrochloride]	594 nM	790 nM	
CNC(CCOc1cccc2ccccc12)c1ccc(OC(=O)N(C)C)cc1 (stereo not shown) [Test Compound 179, 4-[3-(Naphthalen-1-yloxy)-1-methylaminopropyl]phenyl dimethylcarbamate hydrochloride]	86 nM	372 nM	
CNC(CCOc1ccc2ncccc2c1)c1ccc(OC(=O)N(C)C)cc1 (stereo not shown) [Test Compound 180, 4-[3-(Quinolin-6-yloxy)-1-methylaminopropyl]phenyl dimethylcarbamate hydrochloride]	104 nM	111 nM	
CN(C)C(=O)Oc1ccc(C(CCOc2c(F)c(F)c(F)c(F)c2F)N(C)C)cc1 (stereo not shown) [Test Compound 181, 4-[3-(Pentafluorophenoxy)-1-dimethylaminopropyl]phenyl dimethylcarbamate hydrochloride]	44 nM	198 nM	
CN[C@@H](CCOc1ccc([N+](=O)[O-])cc1)c1ccc(OC(=O)N(C)C)c(C)c1 [Test Compound 183, (S)-4-[3-(4-Nitrophenoxy)-1-methylaminopropyl]-2-methylphenyl dimethylcarbamate hydrochloride]	67 nM	26 nM	
CN[C@H](CCOc1ccc([N+](=O)[O-])cc1)c1ccc(OC(=O)N(C)C)c(C)c1 [Test Compound 184, (R)-4-[3-(4-Nitrophenoxy)-1-methylaminopropyl]-2-methylphenyl dimethylcarbamate hydrochloride]	49 nM	56 nM	
CN(C)C(=O)Oc1ccc2c(c1)CCN(C)C2CCOc1ccc([N+](=O)[O-])cc1 (stereo not shown) [Test Compound 187, 2-Methyl-1-[2-(4-nitrophenoxy) -ethyl]-1,2,3,4-tetrahydroisoquinolin-6-yl dimethylcarbamate hydrochloride]	940 nM	11 nM	
Cc1cc(OCCC2c3ccc(OC(=O)N(C)C)cc3CCN2C)ccc1Cl (stereo not shown) [Test Compound 188, 2-Methyl-1-[2-(4-chloro-3-methylphenoxy)-ethyl]-1,2,3,4-tetrahydroisoquinolin-6-yl dimethylcarbamate hydrochloride]	150 nM	53 nM	
CN(C)C(=O)Oc1ccc2c(c1)CCN(C)C2CCOc1ccc([N+](=O)[O-])cc1Cl (stereo not shown) [Test Compound 189, 2-Methyl-1-[2-(2-chloro-4-nitrophenoxy)-ethyl]-1,2,3,4-tetrahydroisoquinolin-6-yl dimethylcarbamate hydrochloride]	300 nM	6 nM	
CN(C)C(=O)Oc1ccc2c(c1)CCN(C)[C@@H]2CCOc1ccc([N+](=O)[O-])cc1Cl [Test Compound 190, 2-Methyl-1-(R)-[2-(2-chloro-4-nitrophenoxy)-ethyl]-1,2,3,4-tetrahydroisoquinolin-6-yl dimethylcarbamate hydrochloride]	460 nM	12 nM	
CN(C)C(=O)Oc1ccc2c(c1)C(CCOc1ccc(Cl)cc1)N(C)CC2 (stereo not shown) [Test Compound 191, 2-Methyl-1-[2-(4-chlorophenoxy)-ethyl]-1,2,3,4-tetrahydroisoquinolin-7-yl dimethylcarbamate hydrochloride]	520 nM	265 nM	
CN(C)C(=O)Oc1ccc2c(c1)CCCN(C)C2CCOc1ccc([N+](=O)[O-])cc1Cl (stereo not shown) [Test Compound 193, 2-Methyl-1-[2-(2-chloro-4-nitrophenoxy)-ethyl]-1,3,4,5-tetrahydro-1H-benzo[c]azepin-7-yl dimethylcarbamate hydrochloride]	680 nM		24 nM
Cc1cc(OCCC2c3ccc(OC(=O)N(C)C)cc3C=CCN2C)ccc1Cl (stereo not shown) [Test Compound 194, 2-Methyl-1-[2-(4-chloro-3-methylphenoxy)-ethyl]-2,3-dihydro-1H-benzo[c]azepin-7-yl dimethylcarbamate hydrochloride]	61 nM	103 nM	
CN(C)C(=O)Oc1ccc2c(c1)C=CCN(C)C2CCOc1ccc(F)cc1Cl (stereo not shown) [Test Compound 195, 2-Methyl-1-[2-(2-chloro-4-fluorophenoxy) -ethyl]-2,3-dihydro-1H-benzo[c]azepin-7-yl dimethylcarbamate hydrochloride]	44 nM	50 nM	
CNC(CCOc1ccc(Cl)c([N+](=O)[O-])c1)c1cccc(OC(=O)N(C)C)c1 (stereo not shown) [Test Compound 203, 3-[3-(4-Chloro-3-nitrophenoxy)-1-methylaminopropyl]phenyl dimethylcarbamate hydrochloride]	40 nM	49 nM	
